Measurements taken from patent US3991202A, “Imidazolium salts” (Janssen Pharmaceutica N.V., priority 1974, dated 1976).

Assays:
Assay in all cases: Antifungal growth inhibition in Sabouraud's liquid medium
Assay type in all cases: cell-based
Cryptococcus neoformans = conditions: Cr.n., tested at 100, 10, 1 μg/ml; for MIC: Cryptococcus neoformans, 336 h, read-out: Concentrations in μg/ml for 100% Inhibition of Growth
Protocol: (§1) Tests for the control of fungal organisms were performed using Sabouraud's liquid medium (1 g. of neopeptone Difco and 2 g. of glucose Difco per 100 ml. distilled water) in test tubes, each containing 4.5 ml. of liquid medium, autoclaved at 120° C for 15 minutes. The imidazolium salts were prepared for testing by dissolving in 50% ethanol to a concentration of 20 mg./ml. and thereafter diluting with sterile distilled water to obtain a concentration of 10 mg./ml. Successive decimal dilutions were then made with sterile distilled water to prepare a series of test solutions. In carrying out the test, 0.5 ml. of one of the test solutions is added to 4.5 ml. of Sabouraud's liquid medium to obtain a test medium. In this manner, from appropriate test solution, test media containing 100 μg, 10 μg and 1 μg of imidazolium salt per milliliter of medium were obtained.
(§2) Control tubes were prepared by adding 0.5 ml. of sterile distilled water to 4.5 ml. of medium. Ethanol was also added to simulate the amount which would be present in the test media. Filamentous fungi were incubated at 25° C for two to three weeks. A square block of side 2 mm. was excised and inoculated into the liquid medium. A 3-day old culture on Sabouraud's liquid medium was used for yeasts. The inoculum was 0.05 ml. per tube. All cultures were incubated at 25° C for 14 days.

[1] = test system: Ctenomyces mentagrophytes; conditions: Ct.m., tested at 100, 10, 1 μg/ml; for MIC: Trichophyton mentagrophytes, 336 h, read-out: Concentrations in μg/ml for 100% Inhibition of Growth
Protocol: as §1, §2

Microsporum canis = conditions: M.c., tested at 100, 10, 1 μg/ml; for MIC: Microsporum canis, 336 h, read-out: Concentrations in μg/ml for 100% Inhibition of Growth
Protocol: as §1, §2

Trichophyton rubrum = conditions: Tr.r., tested at 100, 10, 1 μg/ml; for MIC: Trichophyton rubrum, 336 h, read-out: Concentrations in μg/ml for 100% Inhibition of Growth
Protocol: as §1, §2

| Compound | MIC (Cryptococcus neoformans) [µg/mL] | MIC [1] [µg/mL] | MIC (Microsporum canis) [µg/mL] | MIC (Trichophyton rubrum) [µg/mL] | Concentrations in μg/ml for 100% Inhibition of Growth (Cryptococcus neoformans) [µg/mL] | Concentrations in μg/ml for 100% Inhibition of Growth [1] [µg/mL] | Concentrations in μg/ml for 100% Inhibition of Growth (Microsporum canis) [µg/mL] | Concentrations in μg/ml for 100% Inhibition of Growth (Trichophyton rubrum) [µg/mL] |
| --- | --- | --- | --- | --- | --- | --- | --- | --- |
| Cc1cccc(C)c1N(C)C(=O)C[n+]1ccn(CC(OCc2ccc(Cl)cc2Cl)c2ccc(Cl)cc2Cl)c1 (stereo not drawn) | 10 | 10 | 10 | 1 | – | – | – | – |
| CC(C(=O)Nc1ccccc1Cl)[n+]1ccn(CC(OCc2ccc(Cl)cc2Cl)c2ccc(Cl)cc2Cl)c1 (stereo not drawn) | 100 | 10 | 10 | 1 | – | – | – | – |
| Cc1cccc(Cl)c1CNC(=O)C(C)[n+]1ccn(CC(OCc2ccc(Cl)cc2Cl)c2ccc(Cl)cc2Cl)c1 (stereo not drawn) | 100 | 1 | 1 | 1 | – | – | – | – |
| O=C(C[n+]1ccn(CC(OCc2ccc(Cl)cc2Cl)c2ccc(Cl)cc2Cl)c1)c1cccs1 (stereo not drawn) | 10 | 1 | 10 | 1 | – | – | – | – |
| O=C(C[n+]1ccn(CC(OCc2ccc(Cl)cc2Cl)c2ccc(Cl)cc2Cl)c1)c1ccc(Cl)s1 (stereo not drawn) | 10 | 1 | 1 | 1 | – | – | – | – |
| OC(C[n+]1ccn(CC(OCc2ccc(Cl)cc2Cl)c2ccc(Cl)cc2Cl)c1)c1ccc(Cl)cc1 (stereo not drawn) | 10 | 1 | 10 | 1 | – | – | – | – |
| 1-(β-butoxy2,4-dichlorophenethyl)-3-[p-chloro-a-(p-fluorophenyl)benzyl]imidazolium chloride | – | – | – | – | 100 | 10 | 10 | 10 |
| Cc1ccccc1NC(=O)C[n+]1ccn(CC(OCc2ccc(Cl)cc2)c2ccc(Cl)cc2Cl)c1 (stereo not drawn) [2,4(Cl)2C6H3/CH2C6H4pCl/CH2CONHoCH3, 1-[2,4-Dichloro-β-(p-chlorobenzyloxy)phenethyl]-3-(N-o-tolylcarbamoymethyl)imidazolium cholride] | 10 | 1 | 10 | 1 | – | – | – | – |
| C=CCOC(Cn1cc[n+](CC(=O)c2ccc(F)cc2)c1)c1ccc(Cl)cc1Cl (stereo not drawn) [2,4(Cl)2C6H3/CH2CHCH2/CH2COC6H4pF, 1-[β-(alloyloxy)-2,4-dichlorophenethyl]-3-(p-fluorophenacyl)imidazolium chloride] | 100 | 10 | 10 | 10 | – | – | – | – |
| OC(C[n+]1ccn(CC(OCc2ccc(Cl)cc2)c2ccc(Cl)cc2Cl)c1)c1ccc(Cl)cc1 (stereo not drawn) [2,4(Cl)2C6H3/drawing 65/CH2CHOHC6H4pCl] | 100 | 1 | 1 | 1 | – | – | – | – |
| O=C(C[n+]1ccn(CC(OCc2ccc(Cl)cc2)c2ccc(Cl)cc2Cl)c1)c1ccc(F)cc1 (stereo not drawn) [2,4(Cl)2C6H3/drawing 65/CH2COC6H4pF] | 10 | 1 | 1 | 1 | – | – | – | – |
| OC(C[n+]1ccn(CC(OCc2c(Cl)cccc2Cl)c2ccc(Cl)cc2Cl)c1)c1ccc(Cl)cc1 (stereo not drawn) [2,4(Cl)2C6H3/drawing 66/CH2CHOHC6H4pCl] | 10 | 10 | 10 | 1 | – | – | – | – |
| O=C(C[n+]1ccn(CC(OCc2c(Cl)cccc2Cl)c2ccc(Cl)cc2Cl)c1)c1ccc(F)cc1 (stereo not drawn) [2,4(Cl)2C6H3/drawing 66/CH2COC6H4pF] | 10 | 10 | 10 | 1 | – | – | – | – |
| CCCCOC(Cn1cc[n+](CC(=O)Nc2ccc(F)cc2)c1)c1ccc(Cl)cc1Cl (stereo not drawn) [2,4(Cl)2C6H3/nC4H9/CH2CONHC6H4pF, 1-(β-Butoxy-2,4-dichlorophenethyl)-3-[N-(p-fluorophenyl)carbamoylmethyl]imidazolium chloride] | 100 | 10 | 10 | 10 | – | – | – | – |
| O=C(CCn1cc[n+](CC(OCc2ccc(Cl)cc2Cl)c2ccc(Cl)cc2Cl)c1)c1ccc(Br)cc1.[Cl-] (stereo not drawn) [(CH2)2COC6H4pBr, 1-[2-(p-Bromobenzoyl)ethyl]-3-[2,4-dichloro-β-(2,4-dichlorobenzyloxy)phenethyl]imidazolium chloride] | 1 | 1 | 10 | 1 | – | – | – | – |
| O=C(CCn1cc[n+](CC(OCc2ccc(Cl)cc2Cl)c2ccc(Cl)cc2Cl)c1)c1ccc(Cl)cc1.[Cl-] (stereo not drawn) [(CH2)2COC6H4pCl, 1-[2-(p-Chlorobenzoyl)ethyl]-3-[2,4-dichloro-β-(2,4dichlorobenzyloxy)phenethyl]imidazolium chloride] | 1 | 1 | 1 | 1 | – | – | – | – |
| O=C(CC[n+]1ccn(CC(OCc2ccc(Cl)cc2Cl)c2ccc(Cl)cc2Cl)c1)Nc1ccccc1[N+](=O)[O-].[Cl-] (stereo not drawn) [(CH2)2CONHC6H4oNO2, 1-[2,4-Dichloro-β-(2,4-dichlorobenzyloxy)-phenethyl]-3-{2-[N-(o-nitrophenyl)carbamoyl]ethyl}imidazolium chloride] | 100 | 1 | 10 | 1 | – | – | – | – |
| Clc1ccc(NCCn2cc[n+](CC(OCc3ccc(Cl)cc3Cl)c3ccc(Cl)cc3Cl)c2)cc1.[Br-] (stereo not drawn) [(CH2)2NHC6H4pCl, 1-[2-(p-chloroanilino)ethyl]-3-[2,4-dichloro-β-(2,4-dichlorobenzyloxy)phenethyl]imidazolium bromide] | 1 | 10 | 10 | 10 | – | – | – | – |
| Cc1cccc(C)c1OCC[n+]1ccn(CC(OCc2ccc(Cl)cc2Cl)c2ccc(Cl)cc2Cl)c1.[Br-] (stereo not drawn) [(CH2)2OC6H32,6(CH3)2, 1-[2,4-Dichloro-β-(2,4-dichlorobenzyloxy)phenethyl]-3-[2-(2,6-xylyloxy)ethyl]imidazolium bromide] | 1 | 1 | 10 | 10 | – | – | – | – |
| Clc1ccc(COC(Cn2cc[n+](CCOc3ccc4ccccc4c3)c2)c2ccc(Cl)cc2Cl)c(Cl)c1.O.[Br-] (stereo not drawn) [(CH2)2OC10H7, 1-[2,4-Dichloro-β-(2,4-dichlorobenzyloxy)phenethyl]3-[2-(2-naphthyloxy)ethyl]imidazolium bromide hydrate] | 1 | 10 | 10 | 10 | – | – | – | – |
| Clc1ccc(COC(Cn2cc[n+](CCCOc3ccc4ccccc4c3)c2)c2ccc(Cl)cc2Cl)c(Cl)c1.O.[Cl-] (stereo not drawn) [(CH2)3OC10H7, 1-[2,4-Dichloro-β-(2,4-dichlorobenzyloxy)phenethyl]-3-[3-(2-naphthyloxy)propyl]imidazolium chloride hydrate] | 100 | 10 | 10 | 10 | – | – | – | – |
| Clc1ccc(C=CCn2cc[n+](CC(OCc3ccc(Cl)cc3Cl)c3ccc(Cl)cc3Cl)c2)c(Cl)c1.[Cl-] (stereo not drawn) [CH2CHCHC6H3s,4(Cl)2, 1-(2,4-dichlorocinnamyl)-3-[2,4-dichloro-β-(2,4-dichlorobenzyloxy)phenethyl]-imidazolium chloride] | 10 | 1 | 10 | 10 | – | – | – | – |
| Clc1ccc(COC(C[n+]2ccn(CC=Cc3ccccc3)c2)c2ccc(Cl)cc2Cl)c(Cl)c1.[Cl-] (stereo not drawn) [CH2CHCHC6H5, 1-Cinnamyl-3-[2,4-dichloro-β-(2,4-dichlorobenzyloxy)phenethyl]imidazolium chloride] | 100 | 10 | 10 | 1 | – | – | – | – |
| COc1cccc(C(=O)C[n+]2ccn(CC(OCc3ccc(Cl)cc3Cl)c3ccc(Cl)cc3Cl)c2)c1.[Br-] (stereo not drawn) [CH2COC6H4mOCH3, 1-[2,4-dichloro-β-(2,4-dichlorobenzyloxy)phenethyl]-3-(m-methoxyphenacyl)imidazolium bromide] | 10 | 1 | 10 | 1 | – | – | – | – |
| COc1ccc(C(=O)C[n+]2ccn(CC(OCc3ccc(Cl)cc3Cl)c3ccc(Cl)cc3Cl)c2)cc1.[Br-] (stereo not drawn) [CH2COC6H4p(OCH3), 1-[2,4-Dichloro-β-(2,4-dichlorobenzyloxy)phenethyl]-3-(p-methoxyphenacyl)imidazolium bromide] | 10 | 10 | 10 | 1 | – | – | – | – |
| O=C(Cn1cc[n+](CC(OCc2ccc(Cl)cc2Cl)c2ccc(Cl)cc2Cl)c1)c1ccc(Br)cc1.[Cl-] (stereo not drawn) [CH2COC6H4pBr, 1-(p-bromobenzoylmethyl)-3-[2,4-dichloro-β-(2,4-dichlorobenzyloxy)phenethyl]imidazolium chloride] | 1 | 1 | 10 | 1 | – | – | – | – |
| O=C(Cn1cc[n+](CC(OCc2ccc(Cl)cc2Cl)c2ccc(Cl)cc2Cl)c1)c1ccc(Cl)cc1.[Br-] (stereo not drawn) [CH2COC6H4pCl, 1-(p-chlorobenzoylmethyl)-3-[2,4-dichloro-β-(2,4-dichlorobenzyloxy)phenethyl]imidazolium bromide] | 1 | 1 | 1 | 1 | – | – | – | – |
